According to PubChem BioAssay AID1963826 (Molecular Pharmacology Branch, DTP, NCI, 2024):

System: 926638-142-R-J1-PDC complex spheroid viability
Assay: Anticancer human tumor 926638-142-R-J1-PDC patient-derived endometrial carcinoma cell line growth inhibition [POLQ]
Settings: for IC50: curve of first compound; for viability, T/C: stronger effect = lower value; active means viability on the fitted dose curve at most 10% of control; inactive means the rest
Method: Multicellular complex tumor spheroid response to Polymerase (POL) inhibitors (novobiocin, ART-558, RP6685) in combination with a variety of drugs and investigational agents in selected tumor cell lines
The POL inhibitors (novobiocin, ART-558, and RP6685) were evaluated both individually and in combination with standard of care and investigational anticancer small molecules within a complex spheroid model of solid tumors. . Complex spheroids include a stromal component modeled by human endothelial cells (HUVEC) and fibroblasts modeled by human mesenchymal stem cells (MSCs). The concentration ranges selected for each drug and investigational agent were based upon clinically achievable concentrations if the clinical Cmax of the agent was known.
Compounds. The drugs and investigational agents: novobiocin (NSC847541), ART-558 (NSC835418), RP-6685 (NSC848927), peposertib (NSC802822), ceralasertib (NSC780249), elimusertib (NSC800525), camonsertib (NSC841442), AZD-1390 (NSC803789), olaparib (NSC753686), talazoparib (NSC767125), rucaparib (NSC756644), sotorasib (NSC818433), MRTX-1133 (NSC836407), SN-38 (NSC673596), topotecan (NSC609699), epotoside (NSC141540), doxorubicin (NSC123127), gemcitabine (NSC613327), 5-fluorouracil (NSC19893), paclitaxel (NSC125973), vemurafenib (NSC761431), MSA-2 (NSC828583), SN-011 (NSC837082), adavosertib (NSC754352), prexasertib (NSC758257), carboplatin (NSC241240) and oxaliplatin (NSC266046), were obtained from the National Cancer Institute (NCI) Developmental Therapeutics Program Chemical Repository (21). The FDA-approved anticancer drug set is available from the Developmental Therapeutics Program at https://dtp.cancer.gov/organization/dscb/obtaining/. […] The stock solutions were prepared in dimethyl sulfoxide (DMSO, Sigma-Aldrich, St. Louis, MO, cat. D2650), except for the platinum compounds which were prepared in saline (Quality Biological, Gaithersburg, MD, cat. 114-055-101), at 800-fold the tested concentration and stored at -70 degrees C prior to their use. All drugs and investigational agents were tested over a range starting from a high concentration at or near the clinical Cmax and decreasing in half-log increments. If the clinical Cmax for an agent had not been determined, the highest concentration tested was 10 microM, except for SN-38, which was tested at a high concentration of 1 microM.
Cell Culture. All cells were maintained in an incubator at 37 degrees C and 5% CO2 with 95% humidity. The PDC lines were cultured according to standard operating procedures established by the NCI PDMR (https://pdmr.cancer.gov). Table 3 of the manuscript, lists the cell lines along with the number of the three cell types plated to form the mct-spheroids and media for tumor cell growth. After thawing, all PDC lines, except 997537-175-T-J1-PDC and 415267-285-R-J2-PDC, were cultured in Matrigel-coated flasks prepared with a working solution of 1X Ham's F-12 nutrient mix, without supplementation (Thermo Fisher Scientific, cat. 11765054), 100 U/mL penicillin-streptomycin (Thermo Fisher Scientific, cat. 15140122), and 2.5% Matrigel (Corning Inc., Corning, NY, cat. 354248) for the first three passages. The two PDC lines 997537-175-T-J1-PDC and 415267-285-R-J2-PDC were cultured on uncoated flasks. The 857933-349-R-J2-PDC line was cultured in 6C/Colon 1B media containing advanced DMEM/F-12 (Thermo Fisher Scientific, cat. 12634028), 10 mM HEPES (Thermo Fisher Scientific, cat. 15630080), 1X GlutaMAX supplement (Thermo Fisher Scientific, cat. 35050061), 0.1 mg/mL primocin (InvivoGen, San Diego, CA, cat. ant-pm-2), 10% defined fetal bovine serum, heat inactivated (HyClone Laboratories Inc., Logan, UT, cat. SH30070.03HI), 50% L-WRN conditioned media (ATCC, cat. CRL-3276), 1.25 mM N-Acetyl-L-cysteine (Sigma-Aldrich, cat. A9165), 10 mM nicotinamide (Sigma-Aldrich, cat. N0636), 1X B-27 supplement (Thermo Fisher Scientific, cat. 17504044), 1X N-2 supplement (Thermo Fisher Scientific, cat. […]

[1] = second compound 0.0316 µM, first compound 0.0316 µM
[2] = second compound 0.0316 µM, first compound 0.1 µM
[3] = second compound 0.0316 µM, first compound 0.316 µM
[4] = second compound 0.0316 µM, first compound 1 µM
[5] = second compound 0.0316 µM, first compound 3.16 µM
[6] = second compound 0.0316 µM, first compound 10 µM
[7] = second compound 0.1 µM, first compound 0.0316 µM
[8] = second compound 0.1 µM, first compound 0.1 µM
[9] = second compound 0.1 µM, first compound 0.316 µM
[10] = second compound 0.1 µM, first compound 1 µM
[11] = second compound 0.1 µM, first compound 3.16 µM
[12] = second compound 0.1 µM, first compound 10 µM
[13] = second compound 0.316 µM, first compound 0.0316 µM
[14] = second compound 0.316 µM, first compound 0.1 µM
[15] = second compound 0.316 µM, first compound 0.316 µM
[16] = second compound 0.316 µM, first compound 1 µM
[17] = second compound 0.316 µM, first compound 3.16 µM
[18] = second compound 0.316 µM, first compound 10 µM
[19] = second compound 1 µM, first compound 0.0316 µM
[20] = second compound 1 µM, first compound 0.1 µM
[21] = second compound 1 µM, first compound 0.316 µM
[22] = second compound 1 µM, first compound 1 µM
[23] = second compound 1 µM, first compound 3.16 µM
[24] = second compound 1 µM, first compound 10 µM
[25] = second compound 3.16 µM, first compound 0.0316 µM
[26] = second compound 3.16 µM, first compound 0.1 µM
[27] = second compound 3.16 µM, first compound 0.316 µM
[28] = second compound 3.16 µM, first compound 1 µM
[29] = second compound 3.16 µM, first compound 3.16 µM
[30] = second compound 3.16 µM, first compound 10 µM
[31] = second compound 10 µM, first compound 0.0316 µM
[32] = second compound 10 µM, first compound 0.1 µM
[33] = second compound 10 µM, first compound 0.316 µM
[34] = second compound 10 µM, first compound 1 µM
[35] = second compound 10 µM, first compound 3.16 µM
[36] = second compound 10 µM, first compound 10 µM
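Further: spheroids exposed to drugs for one week before readout.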
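Wherever viability, T/C is given: percent viability relative to DMSO vehicle control wells set as 100%.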

COc1cccc2c1C(=O)c1c(O)c3c(c(O)c1C2=O)CC(O)(C(=O)CO)CC3OC1CC(N)C(O)C(C)O1 (centres undefined) + COC1C(OC(N)=O)C(O)C(Oc2ccc3c(O)c(NC(=O)c4ccc(O)c(CC=C(C)C)c4)c(=O)oc3c2C)OC1(C)C
128 nM: IC50 (second compound 1 µM)
129 nM: IC50 (second compound 0.316 µM)
167 nM: IC50 (second compound 0.1 µM)
active: viability, T/C [4] 1.39% | viability, T/C [5] 0.18% | viability, T/C [6] 0.28% | viability, T/C [10] 3.56% | viability, T/C [11] 0.18% | viability, T/C [12] 0.25% | viability, T/C [16] 1.61% | viability, T/C [17] 0.22% | viability, T/C [18] 0.17% | viability, T/C [22] 2.68% | viability, T/C [23] 0.17% | viability, T/C [24] 0.21% | viability, T/C [28] 3.97% | viability, T/C [29] 0.21% | viability, T/C [30] 0.21% | viability, T/C [34] 2.23% | viability, T/C [35] 0.25% | viability, T/C [36] 0.26%
inactive: viability, T/C [1] 73.2% | viability, T/C [2] 48.3% | viability, T/C [3] 17.7% | viability, T/C [7] 81% | viability, T/C [8] 74.1% | viability, T/C [9] 19.9% | viability, T/C [13] 81.6% | viability, T/C [14] 59.9% | viability, T/C [15] 15.9% | viability, T/C [19] 72.9% | viability, T/C [20] 59.8% | viability, T/C [21] 14% | viability, T/C [25] 74.3% | viability, T/C [26] 61.1% | viability, T/C [27] 16.2% | viability, T/C [31] 90.7% | viability, T/C [32] 69% | viability, T/C [33] 18%
94.1 nM: IC50 (second compound 0.0316 µM)
133 nM: IC50 (second compound 3.16 µM)
154 nM: IC50 (second compound 10 µM)

O=c1[nH]cc(F)c(=O)[nH]1 + COC1C(OC(N)=O)C(O)C(Oc2ccc3c(O)c(NC(=O)c4ccc(O)c(CC=C(C)C)c4)c(=O)oc3c2C)OC1(C)C
inactive: viability, T/C [1] 124% | viability, T/C [2] 110% | viability, T/C [3] 94.1% | viability, T/C [4] 101% | viability, T/C [5] 98.4% | viability, T/C [6] 94.1% | viability, T/C [7] 106% | viability, T/C [8] 90.8% | viability, T/C [9] 104% | viability, T/C [10] 90.4% | viability, T/C [11] 103% | viability, T/C [12] 71% | viability, T/C [13] 125% | viability, T/C [14] 105% | viability, T/C [15] 87.3% | viability, T/C [16] 84.1% | viability, T/C [17] 98.2% | viability, T/C [18] 82.7% | viability, T/C [19] 98.3% | viability, T/C [20] 106% | viability, T/C [21] 90.1% | viability, T/C [22] 79.6% | viability, T/C [23] 79.3% | viability, T/C [24] 75.4% | viability, T/C [25] 102% | viability, T/C [26] 85.9% | viability, T/C [27] 90.6% | viability, T/C [28] 86.9% | viability, T/C [29] 79.5% | viability, T/C [30] 83.6% | viability, T/C [31] 104% | viability, T/C [32] 96.6% | viability, T/C [33] 77.1% | viability, T/C [34] 86.6% | viability, T/C [35] 114% | viability, T/C [36] 83.4%
> 10000 nM: IC50 (second compound 0.0316 µM) | IC50 (second compound 0.1 µM) | IC50 (second compound 0.316 µM) | IC50 (second compound 1 µM) | IC50 (second compound 3.16 µM) | IC50 (second compound 10 µM)
